From DBAASP
In brackets after ≈: the same amount, converted by molar mass. Several values for one entry are separate records, joined by “and”; a condition that tells them apart may be missing. Equal values may be shown once.

Experiments:
Assay in all cases: ≥ marks a high value that may be exact or a test limit, other limits are often not marked, values filed in µg/mL are converted to µM
[1] = system: Pseudomonas syringae pv. actinidiae Psa3700.1.1
[2] = system: Xanthomonas campestris pv. Vesicatoria 2133-2
[3] = system: Xanthomonas fragariae Xf349-9A
[4] = system: Pseudomonas syringae pv. syringae EPS 94
[5] = system: Xanthomonas arboricola pv. pruni CFBP 5563
[6] = system: Erwinia amylovora PMV 6076
Klebsiella pneumoniae = system: Klebsiella pneumoniae
[7] = system: Staphylococcus epidermidis BCM0060
Enterococcus faecalis = system: Enterococcus faecalis
Streptococcus pneumoniae = system: Streptococcus pneumoniae
Bacillus subtilis = system: Bacillus subtilis
[8] = system: Staphylococcus aureus ATCC 43300
[9] = system: Pseudomonas aeruginosa PAO1
Enterococcus faecium = system: Enterococcus faecium
[10] = system: Escherichia coli ATCC 25922
[11] = system: Staphylococcus aureus LAC
[12] = system: Rhizopus stolonifer CECT 2344
[13] = system: Saccharomyces cerevisiae FY1679
[14] = system: Escherichia coli DH5alpha
[15] = system: Candida albicans ATCC 64550
[16] = system: Pseudomonas syringae EPS 94
[17] = system: Fusarium oxysporum f. sp. lycopersici ATCC 201829
[18] = system: Penicillium digitatum PHI-26
[19] = system: Penicillium expansum EPS 26
[20] = system: Aspergillus niger CECT 2694
[21] = system: Xanthomonas vesicatoria 2133-2
[22] = system: Trichoderma viride KCTC 16992
[23] = system: Candida krusei CCARM 14017
[24] = system: Fusarium graminearum KCTC 16656
[25] = system: Trichophyton rubrum KCTC 6345
[26] = system: Candida albicans CCARM 14004
[27] = system: Candida albicans CCARM 14020
[28] = system: Candida albicans CCARM 14007
[29] = system: Trichoderma virens KCTC 16924
[30] = system: Colletotrichum gloeosporioides KCTC 6169
[31] = system: Fusarium oxysporum KCTC 16909
[32] = system: Fusarium solani KCTC 6326
[33] = system: Candida albicans CCARM 14001
[34] = system: Aspergillus flavus KCTC 6905
[35] = system: Fusarium verticillioides KCTC 6149
[36] = system: Candida parapsilosis CCARM 14016
[37] = system: Candida albicans KCTC 7270
[38] = system: Staphylococcus epidermidis KCTC 1917
[39] = system: Pseudomonas aeruginosa KCTC 1637
[40] = system: Pseudomonas aeruginosa CCARM 2109
[41] = system: Bacillus subtilis KCTC 3068
[42] = system: Salmonella typhimurium KCTC 1926
[43] = system: Staphylococcus aureus CCARM 3090
[44] = system: Staphylococcus aureus CCARM 3089
[45] = system: Staphylococcus aureus CCARM 3095
[46] = system: Enterococcus faecium ATCC 51559
[47] = system: Pseudomonas aeruginosa CCARM 2095
[48] = system: Pseudomonas aeruginosa 1570
[49] = system: Pseudomonas aeruginosa 5167

CC[C@H](C)[C@H](NC(=O)CNC(=O)[C@@H](N)Cc1ccc(O)cc1)C(=O)N[C@@H](Cc1cnc[nH]1)C(=O)N[C@H](C(=O)N[C@@H](Cc1cnc[nH]1)C(N)=O)[C@@H](C)O [YGIHTH]
MIC [1]: ≥ 50 µM
MIC [2]: ≥ 50 µM
MIC [3]: ≥ 50 µM
MIC [4]: ≥ 50 µM
MIC [5]: ≥ 50 µM
MIC [6]: ≥ 50 µM

CC[C@H](C)[C@H](NC(=O)[C@H](CCCCN)NC(=O)[C@H](Cc1c[nH]c2ccccc12)NC(=O)[C@H](CCCN=C(N)N)NC(=O)[C@H](CCCN=C(N)N)NC(=O)CNC(=O)[C@H](Cc1cnc[nH]1)NC(=O)CNC(=O)CN)C(=O)N[C@H](C(=O)N[C@H](C(=O)N[C@H](C(=O)N[C@@H](CCCN=C(N)N)C(=O)N[C@@H](Cc1c[nH]c2ccccc12)C(=O)N[C@@H](CCCN=C(N)N)C(=O)N[C@@H](CCCN=C(N)N)C(N)=O)[C@@H](C)CC)C(C)C)C(C)C [GGHGRRWKIVVIRWRR]
MIC (Klebsiella pneumoniae): 4.7 µM (≈ 9.55 µg/mL)
MIC [7]: 2.3 µM (≈ 4.67 µg/mL)
MIC (Enterococcus faecalis): 1 µM (≈ 2.03 µg/mL)
MIC (Streptococcus pneumoniae): 9.3 µM (≈ 18.9 µg/mL)
MIC (Bacillus subtilis): 1.33 µM (≈ 2.7 µg/mL)
MIC [8]: 1.3 µM and 2.7 µM
MIC [9]: 1.7 µM (≈ 3.45 µg/mL)
MIC (Enterococcus faecium): 0.3 µM (≈ 0.609 µg/mL)
MIC [10]: 1 µM and 3 µM

CC(C)C[C@H](NC(=O)[C@H](CC(C)C)NC(=O)[C@H](CC(C)C)NC(=O)[C@@H](N)CC(C)C)C(=O)N[C@@H](CCCN=C(N)N)C(=O)N[C@@H](CCCN=C(N)N)C(=O)N[C@@H](CCCN=C(N)N)C(=O)N[C@@H](CCCN=C(N)N)C(=O)O [LLLLRRRR]
MIC [11]: ≥ 117 µM
MIC [10]: > 117 µM

CC[C@H](C)[C@H](NC(=O)[C@H](CCCCN)NC(=O)[C@H](CCCCN)NC(=O)[C@H](Cc1ccccc1)NC(=O)[C@H](CC(C)C)NC(=O)[C@H](CCCCN)NC(=O)[C@@H](N)CCCCN)C(=O)N[C@@H](CC(C)C)C(=O)N[C@@H](CCCCN)C(=O)N[C@@H](Cc1ccccc1)C(=O)N[C@@H](CC(C)C)C(N)=O [KKLFKKILKFL]
MIC [12]: ≥ 35.4 µM
MIC [13]: 16 µM (≈ 22.5 µg/mL)
MIC [14]: 4 µM (≈ 5.62 µg/mL)
MIC [15]: 25 µM (≈ 35.1 µg/mL)
MIC [16]: 3.16 µM (≈ 4.44 µg/mL)
MIC [17]: 0.849 µM (≈ 1.19 µg/mL)
MIC [18]: 4 µM (≈ 5.62 µg/mL)
MIC [19]: ≥ 35.4 µM
MIC [20]: 22.4 µM (≈ 31.4 µg/mL)
MIC [21]: 3.16 µM (≈ 4.44 µg/mL)
MIC [6]: 3.16 µM (≈ 4.44 µg/mL)

NCCCC[C@H](NC(=O)[C@H](CCCCN)NC(=O)[C@H](Cc1cnc[nH]1)NC(=O)[C@H](CCCCN)NC(=O)[C@H](CCCCN)NC(=O)[C@@H](N)Cc1cnc[nH]1)C(N)=O [HKKHKK]
MIC [22]: ≥ 64 µM
MIC [23]: ≥ 64 µM
MIC [24]: ≥ 64 µM
MIC [25]: ≥ 64 µM
MIC [26]: ≥ 64 µM
MIC [27]: ≥ 64 µM
MIC [28]: ≥ 64 µM
MIC [29]: ≥ 32 µM
MIC [30]: 16 µM (≈ 12.9 µg/mL)
MIC [31]: ≥ 64 µM
MIC [32]: ≥ 32 µM
MIC [33]: ≥ 64 µM
MIC [34]: ≥ 64 µM
MIC [35]: ≥ 32 µM
MIC [36]: ≥ 64 µM
MIC [37]: ≥ 64 µM

C[C@H](NC(=O)[C@H](CCCCN)NC(=O)[C@H](Cc1ccc(O)cc1)NC(=O)[C@H](Cc1c[nH]c2ccccc12)NC(=O)[C@H](CCCCN)NC(=O)[C@H](CCCCN)NC(=O)[C@H](Cc1ccccc1)NC(=O)[C@H](CCCN=C(N)N)NC(=O)[C@@H](N)CCCCN)C(=O)N[C@@H](Cc1c[nH]c2ccccc12)C(=O)N[C@@H](CCCN=C(N)N)C(=O)N[C@@H](CCCCN)C(=O)N[C@@H](CCCCN)C(=O)N[C@@H](Cc1c[nH]c2ccccc12)C(=O)N[C@@H](CCCN=C(N)N)C(=O)N[C@@H](CCCCN)C(=O)N[C@@H](Cc1ccc(O)cc1)C(N)=O [KRFKKWYKAWRKKWRKY]
MIC [38]: 2 µM (≈ 4.97 µg/mL)
MIC [39]: 2 µM (≈ 4.97 µg/mL)
MIC [40]: 4 µM (≈ 9.94 µg/mL)
MIC [41]: 4 µM (≈ 9.94 µg/mL)
MIC [42]: 1 µM (≈ 2.49 µg/mL)
MIC [43]: 2 µM (≈ 4.97 µg/mL)
MIC [44]: 2 µM (≈ 4.97 µg/mL)
MIC [45]: 2 µM (≈ 4.97 µg/mL)
MIC [46]: 2 µM (≈ 4.97 µg/mL)
MIC [47]: 4 µM (≈ 9.94 µg/mL)

CC(C)C[C@H](NC(=O)[C@H](CC(C)C)NC(=O)[C@H](CCCCN)NC(=O)[C@H](CCCCN)NC(=O)[C@H](CC(C)C)NC(=O)[C@H](CC(C)C)NC(=O)[C@H](C)NC(=O)[C@H](CC(C)C)NC(=O)[C@@H](N)Cc1ccccc1)C(N)=O [FLALLKKLL]
MIC [48]: 10.7 µM (≈ 11.3 µg/mL)
MIC [49]: ≥ 42.8 µM
